Tests used:
[1] = tested on: T. cruzi intracellular amastigotes in H9c2 cells; assay: Rate-of-Kill (RoK) high-content imaging assay, amastigotes per cell (AM/CELL) and curve descriptors; assay type: cell-based, Trypanosoma cruzi; parameters: key to ME_24h / ME_48h / ME_72h: % reduction in parasite burden (cidal response); t50pct_MCC50 / t50pct_Cmax: unit not given here; details: for ME_24h: 24h; for ME_48h: 48h; for ME_72h: 72h; for AM/CELL NORM: sheet figure 4 A; for tlag_Cmax / t50pct_Cmax: at Cmax; for ME_24h (%): maximum effect at 24 h; for ME_24h (%) / ME_48h (%) / ME_72h (%): RoK assay; for ME_48h (%): maximum effect at 48 h; for ME_72h (%): maximum effect at 72 h; for ME 24h (maximum effect at 24 hours, intracellular amastigotes): maximum percentage of parasite burden reduction reached by any concentration
Outline: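 H9c2 cardiomyocytes infected with T. cruzi trypomastigotes (MOI 8, 18 h), then compounds tested at 5 μM single shot or 11-point 1/3 dilution from 50 μM. DRAQ5-stained nuclei imaged over a time course. Amastigotes per cell normalised to infected cells at 4 h (0%) and non-infected cells (100%).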

TcCYP51 = details: formerly reported; cited from earlier work
[2] = tested on: T. cruzi Tulahuen trypomastigotes; assay: T. cruzi trypomastigote assay (Cell Titer-Glo viability, ATP luminescence); assay type: cell-based, Trypanosoma cruzi; details: for Trypomastigotes pIC50 48 hours: 48 hours incubation; for Trypomastigotes pIC50 48 hours / Trypomastigotes pIC50 72 hours: pIC50 = -log10 IC50 in molar units; for Trypomastigotes pIC50 72 hours: 72 hours incubation; for 72 pIC50 (trypomastigotes, raw data of Fig 1D): 72 hours, plotted values, censored values given without sign; for 48 pIC50 / 72 pIC50: trypomastigote assay; for 48 pIC50: 48 h; for 72 pIC50: 72 h
Outline: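 Tulahuen trypomastigotes from infected LLC-MK2 culture supernatants (days 5–8) plated at 5 × 10^4 per well in DMEM/2% FBS with compound at 5 μM single-shot final or in dose response. Viability by CellTiter-Glo ATP luminescence after 10 min at room temperature, normalised to no-cell (100%) and DMSO (0%) controls.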

Compound | ME_24h ([1]; figure 5) | ME_48h ([1]; figure 5) | ME_72h ([1]; figure 5) | MCCE ([1]; RoK curve descriptor) [µM] | AM/CELL NORM ([1]; Time 4) | AM/CELL NORM ([1]; Time 24) | AM/CELL NORM ([1]; Time 48) | AM/CELL NORM ([1]; Time 72) | tlag_Cmax [1] [h] | t50pct_Cmax ([1]; figure 5) | tlag_Cmax ([1]; figure 5) | t50pct_MCC50 ([1]; at MCC50, figure 5) | tlag_MCC50 ([1]; at MCC50, figure 5) | MCCE ([1]; figure 5) | ME_24h (%) [1] [%] | ME_48h (%) [1] [%] | ME_72h (%) [1] [%] | ME 24h (maximum effect at 24 hours, intracellular amastigotes) [1] [%] | CYP51 pIC50 (TcCYP51) | Trypomastigotes pIC50 48 hours [2] | also measured
CC(C)Nc1nccc(-c2c(-c3ccc(F)cc3)ncn2C2CCOCC2)n1 [TCMDC-143379] | -22.482 | -3.3846 | 36.7081 | 0.2 | -6.859 | -37.6965 | -3.3846 | 36.7081 | 24.0 | 72 | 24 | 72 | 72 | 0.2058 | -22.5 | -3.4 | 36.7 | -22.482 | < 4 | < 4.3 | MCC50 ([1]; figure 5): 50 µM; Trypomastigotes pIC50 72 hours [2]: < 4.3; 72 pIC50 (trypomastigotes, raw data of Fig 1D) [2]: < 4.3; 48 pIC50 ([2]; figure 1A): < 4.3; 72 pIC50 ([2]; figure 1A): < 4.3; 72 pIC50 ([2]; figure 1B): < 4.3
CS(=O)(=O)c1cccc(CNC(=O)c2cncc(N3CCN(c4ccc(F)cc4)CC3)c2)c1.O=C(O)C(F)(F)F.O=C(O)C(F)(F)F.O=C(O)C(F)(F)F [TCMDC-143385] | -140.527 | 14.5657 | 58.9567 | 8.6 | -2.309 | -204.359 | 18.8519 | 47.2855 | 24.0 | 72 | 24 | 72 | 48 | 8.642 | -140.5 | 14.6 | 59.0 | -76.6949 | 4.9 | < 4.3 | MCC50 ([1]; RoK curve descriptor): 1.9 µM; t50%_MCC50 ([1]; at MCC50): 72.0 h; tlag_MCC50 ([1]; at MCC50): 24.0 h; MCC50 ([1]; figure 5, in µM): 25.9259; Trypomastigotes pIC50 72 hours [2]: < 4.3; 72 pIC50 (trypomastigotes, raw data of Fig 1D) [2]: < 4.3; 48 pIC50 ([2]; figure 1A): < 4.3; 72 pIC50 ([2]; figure 1A): < 4.3; 72 pIC50 ([2]; figure 1B): < 4.3

Source: publication PMC8318231, “Rate-of-Kill (RoK) assays to triage large compound sets for Chagas disease drug discovery: Application to GSK Chagas Box” (PLoS Neglected Tropical Diseases, 2021)
